Values of other authors as cited in PMC2885594 (Current Chemical Genomics, 2010).

Test system: TPH1
Conditions: ref [30]

**Q.** What does the source list for `N[C@@H](Cc1c[nH]c2ccc(O)cc12)C(=O)O` [5-HTP]?
**A.** mechanism of inhibition versus phenylalanine: competitive; mechanism of inhibition versus pterin: uncompetitive
